The results in this text go back to US20110159507A1, “METHOD FOR DETECTING THE DRUG EFFECTS OF DNA METHYLATION-INHIBITORS” (SCHOOL JURIDICAL PERSON THE KITASATO INSTITUTE, priority 2008, published 2011).

In experiment [1] the test system is K562 PU.1 KD cells (PU 2-10 and PU 3-10). Kind of experiment: cell viability assay (WST-8), percentages of dead cells after drug administration, PU.1 gene-knockdown cells vs control cells. Particulars: for drug sensitivity of PU.1 gene-knockdown cells to the DNA methylation inhibitor: K562 PU.1 KD cells. The format is cell-based. The source says: FIGS. 1(a) and 1(b) illustrate and show the results of establishment experiments of PU.1-knockdown lines (K562 PU.1 KD cells). That is, a PU.1 siRNA expression vector (Takara, Ohtsu, Japan) and its control vector (Takara) were introduced into K562 cells as leukemia cell lines in accordance with the method described in the document (Takahashi Set al., British Journal of Haematology, 2005 (130), p 428-436). Specifically, in the method, electroporation was employed to introduce the expression vector and its control vector into leukemia cell lines (K562 cells). The introduced cells were cultured in an RPMI medium in the presence of 1 μg/mL puromycin to select cells that constitutively express PU.1 siRNAs and isolate the cells by a limiting dilution method. The isolated control cells (Control K562) (V5 and V6) and PU.1-knockdown cells (2-10 and 3-10) (K562 PU.1 KD cells) were used to prepare proteins based on a conventional method. The proteins were subjected to SDS-PAGE electrophoresis, then transferred to a membrane, and blotted with a PU.1 antibody and β-actin useful for the estimation of protein amounts (FIG. 1(a)).
Two kinds of PU.1 gene-knockdown cells (PU 2-10 and PU 3-10) and control cells (vec 5 and vec 6) were compared for their sensitivities to 5-azadc (AZA) (% effect: percentages of dead cells after drug administration). In other words, the respective cells were seeded in a 96-well plate at a density of 2,000 cells/well, and 5-azadc (AZA) was added into the well at concentrations of 0.2, 1, 3.9, 15.6, 62.5, 250, and 1,000 nM. Then, cell viability assays were performed after 96 hours. In the assays, 10 μL of a WST-8 reagent (Dojindo, Japan) were added to a well in which 100 μL of a cell culture medium had been loaded, culture was performed in a 5% CO2 incubator at 37° C. for 2 hours, and the absorbance is then measured using a microplate reader at a wavelength of 490 nm, to thereby measure cell viability. FIG. 7 illustrates the results in terms of percentages of dead cells (% effect).
Background: Formazan colour is commonly taken as a measure of viable cells.

For experiment [2], the system named is K562 PU.1 OE cells (A2 and H8). Kind of experiment: cell viability assay (WST-8), percentages of dead cells after drug administration, PU.1 gene-overexpressing cells vs control cells. In kind it is cell-based. The source says: FIGS. 3(a) and 3(b) illustrate and show the results of establishment experiments of PU.1-overexpressing cell lines (K562 PU.1 OE cells). That is, the PU.1 expression vector described in the literature was used (Inomata et al., Leukemia Research 30 (2006) p 659-664). The expression vector and its control vector pcDNA3.1 (Invitrogen, CA) were introduced into K562 cells as leukemia cell lines in accordance with the method described in literature (Takahashi S et al., British Journal of Haematology, 2005 (130), p 428-436). The introduced cells were cultured in an RPMI medium in the presence of 400 μg/mL Neomycin to select cells that constitutively express PU.1 and isolate the cells by a limiting dilution method. […]
Two kinds of PU.1 gene-knockdown cells (PU 2-10 and PU 3-10) and control cells (vec 5 and vec 6) were compared for their sensitivities to 5-azadc (AZA) (% effect: percentages of dead cells after drug administration). […] In the assays, 10 μL of a WST-8 reagent (Dojindo, Japan) were added to a well in which 100 μL of a cell culture medium had been loaded, culture was performed in a 5% CO2 incubator at 37° C. for 2 hours, and the absorbance is then measured using a microplate reader at a wavelength of 490 nm, to thereby measure cell viability. […]

Take `Nc1ncn([C@@H]2O[C@H](CO)[C@@H](O)[C@H]2O)c(=O)n1` [5-azacytidine]: the “drug sensitivity of PU.1 gene-knockdown cells to the DNA methylation inhibitor” value in experiment [1] is given as “resistant”.

Consider `Nc1ncn([C@H]2C[C@H](O)[C@@H](CO)O2)c(=O)n1` [5-azadc, 5-aza-2′-deoxycytidine], for which the “drug sensitivity of PU.1 gene-knockdown cells to the DNA methylation inhibitor” value in experiment [1] was “resistant and poorly sensitive”; in experiment [1] (listed as 5-aza-2′-deoxycytidine), “resistant”. In addition, the “percentages of dead cells (% effect): lower than in control cells (vec 5 and vec 6) by” value in experiment [1] (PU 2-10 and PU 3-10, 0.2-1,000 nM, 96 hours, FIG. 7) is “about 20%”. Moreover, the “percentages of dead cells (% effect): higher than in control cells (vec 1 and vec 2) by” value in experiment [2] (A2 and H8, same experiment as FIG. 7 (0.2-1,000 nM, 96 hours), FIG. 8) is reported as “about 20%”. Moreover, the “drug sensitivity of PU.1 gene-overexpressing cells to the DNA methylation inhibitor” value in experiment [2] (K562 PU.1 OE cells) is “highly sensitive”.
